From patent US20030104490A1, “Assay” (priority 2000, published 2003)

Assays:
[1] = tested on: CHO-T cells expressing an IRAP-GFP construct; assay: Insulin-induced translocation of IRAP-GFP (GLUT4 vesicles) to the plasma membrane, immunofluorescence, surface:total IRAP-GFP ratio; type: cell-based; conditions: unpermeabilised, anti-GFP staining vs GFP fluorescence, 200 nM insulin for 30 min, inhibitor (wortmannin) treatment preceding stimulation, 20 fields of view
Excerpt: The IRAP-GFP construct used in this example was constructed using an IRAP fragment 66-533 (from the start site to the end of the extracellular ‘stalk’ region) which was generated by PCR using specific primers from a partial cDNA IRAP clone available to the inventors. The resulting fragment was cloned into the pcDNA3 vector using the flanking restriction enzyme sites. GFP3 with a C-terminal myc-tag was also generated by PCR using specific primers and the product cloned into pcDNA3 downstream of the IRAP insert.
CHO-T cells were transfected or microinjected with the IRAP-GFP construct and 24 h later were stimulated without or with 200 nM insulin for 30 min. This was preceded by treatment with an inhibitor (e.g. wortmannin) of insulin signalling.
Subsequently cells were fixed and stained with anti-GFP antibodies (Roche) without prior permeabilisation, as described below, in order to visualise GFP exposed on the surface of the plasma membrane only. […]
The total IRAP-GFP expression level is given by the level of GFP fluorescence (and this corresponds to the second detection method of the first aspect of the invention). […]
Fluorescence intensity due to IRAP-GFP fluorescence and surface IRAP-GFP immunostaining was then computed from cells imaged in 20 fields of view for each treatment condition. Results are expressed as an average ratio of surface:total IRAP-GFP.

[2] = tested on: 3T3-L1 adipocytes microinjected with the IRAP-GFP construct; assay: Insulin-induced translocation of GLUT4-containing vesicles (IRAP-GFP) to the plasma membrane in 3T3-L1 adipocytes, confocal microscopy; type: cell-based; conditions: serum-starved 2 hours, 100 nM insulin for 30 minutes
Procedure: 3T3-L1 fibroblasts (between passages 4 and 12) were seeded onto 22 mm glass coverslips and allowed to grow to confluence. Differentiation into adipocytes was induced in DMEM containing 10% (v/v) myoclone-plus FCS, 0.25 μM dexamethasone, 0.5 mM isobutylmethylxanthine and 166 nM insulin for 2 days (day 0 to day 2). This medium was replaced with DMEM containing 10% (v/v) myoclone-plus FCS and 166 nM insulin for a further 2 days (day 2 to day 4). From day 4 onwards cells were maintained in DMEM containing 10% (v/v) myoclone-plus FCS, replacing the medium every two days. 3T3-L1 adipocytes were used between day 7 and day 10 after initiation of differentiation.
Differentiated 3T3-L1 adipocytes were microinjected with the IRAP-GFP construct used in Example 1 (pcDNA3). […]
The total level of the IRAP-GFP expression is indicated by the level of GFP fluorescence detected (this corresponds to the second detection method of the first aspect of the invention). […] The fluorescence intensity due to IRAP-GFP fluorescence and surface IRAP-GFP immunostaining was computed for each individual cell, using Leica Confocal Software, and a background fluorescence figure subtracted. For each cell, the ratio of background corrected surface:total IRAP-GFP was calculated. […] Each data point represents the red:green fluorescence ratio for one cell.

Compound | MEAN R/G (average ratio of surface:total IRAP-GFP) [1] | translocation of IRAP-GFP to the plasma membrane (red:green ratio surface:total IRAP-GFP per cell, FIG. 4) [2]
insulin | 1.252 | a significant proportion of cell undergo translocation
COC[C@H]1OC(=O)c2coc3c2[C@@]1(C)C1=C(C3=O)[C@@H]2CCC(=O)[C@@]2(C)C[C@H]1OC(C)=O [Wortmannin, wortmannin, reference compound] | 0.363 | –
